Source: patent publication US10308644B2, “Heterocyclic compounds as immunomodulators” (Incyte Corporation, priority 2016, dated 2019)

target: PD-1/PD-L1 (Homo sapiens (Human), UniProt Q9NZQ7); test: PD-1/PD-L1 Homogeneous Time-Resolved Fluorescence (HTRF) Binding Assay; details: recombinant human PD-1 (3 nM) and PD-L1 (10 nM), 25° C., PBS pH 7.4
How it was run: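 Fc-tagged human PD-1 (25-167, 3 nM) and His-tagged PD-L1 (19-238, 10 nM) preincubated with inhibitor 40 min in PBS pH 7.4, 0.05% Tween-20, 0.1% BSA, 1% DMSO, 25 °C. Binding detected by HTRF (Eu anti-IgG/APC anti-His, 665/620 nm) after 60 min; IC50 from percent control activity.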

Sequence of PD-1/PD-L1 (Q9NZQ7 19-238): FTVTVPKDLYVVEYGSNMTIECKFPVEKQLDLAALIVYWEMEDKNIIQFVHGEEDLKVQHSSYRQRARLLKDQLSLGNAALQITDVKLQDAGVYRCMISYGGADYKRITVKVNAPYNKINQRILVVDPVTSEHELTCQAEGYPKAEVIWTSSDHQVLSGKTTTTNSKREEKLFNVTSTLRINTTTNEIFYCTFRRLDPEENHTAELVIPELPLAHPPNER

Row | Structure (SMILES) | IC50
1 | Cc1c(-c2nc3cc(CN4CCC(C(=O)O)CC4)cc(C#N)c3o2)cccc1-c1cccc(-c2nc3c(s2)CN(C(=O)CN(C)C)C3)c1C [Example 236, 1-((7-cyano-2-(3′-(5-(2-(dimethylamino)acetyl)-5,6-dihydro-4H-pyrrolo[3,4-d]thiazol-2-yl)-2,2′-dimethylbiphenyl-3-yl)benzo[d]oxazol-5-yl)methyl)piperidine-4-carboxylic acid] | ≤ 10 nM
2 | CCN1CCc2c(nc(C(=O)Nc3cccc(-c4cccc(-c5nc6cc(CN7CC[C@@](C)(C(=O)O)C7)cc(C#N)c6o5)c4C)c3Cl)n2C)C1 [Example 95, (R)-1-((2-(2′-chloro-3′-(5-ethyl-1-methyl-4,5,6,7-tetrahydro-1H-imidazo[4,5-c]pyridine-2-carboxamido)-2-methylbiphenyl-3-yl)-7-cyanobenzo[d]oxazol-5-yl)methyl)-3-methylpyrrolidine-3-carboxylic acid] | ≤ 10 nM
3 | Cc1c(-c2nc3cc(CN4CC[C@@H](O)C4)cc(C#N)c3o2)cccc1-c1cccc(NC(=O)c2nc3c(n2C)CCN(CC24CCC(C(=O)O)(CC2)C4)C3)c1Cl [Example 267, (R)-4-((2-(2-chloro-3′-(7-cyano-5-((3-hydroxypyrrolidin-1-yl)methyl)benzo[d]oxazol-2-yl)-2′-methylbiphenyl-3-ylcarbamoyl)-1-methyl-6,7-dihydro-1H-imidazo[4,5-c]pyridin-5(4H)-yl)methyl)bicyclo[2.2.1]heptane-1-carboxylic acid] | ≤ 10 nM
4 | Cc1c(Nc2nccc3cc(CN4CC[C@H](O)C4)cnc23)cccc1-c1cccc(-c2nc3cc(CN4CC[C@@H](C(=O)O)C4)cc(C#N)c3o2)c1C [Example 26, (R)-1-((7-cyano-2-(3′-(3-(((S)-3-hydroxypyrrolidin-1-yl)methyl)-1,7-naphthyridin-8-ylamino)-2,2′-dimethylbiphenyl-3-yl)benzo[d]oxazol-5-yl)methyl)pyrrolidine-3-carboxylic acid] | ≤ 10 nM
5 | Cc1c(COc2cc(OCc3cncc(C#N)c3)c(CNCCO)cc2Cl)cccc1-c1cccc(-c2nc3cc(CN4CC[C@@H](C(=O)O)C4)cc(Cl)c3o2)c1C [Example 150, (R)-1-((7-chloro-2-(3′-((2-chloro-5-((5-cyanopyridin-3-yl)methoxy)-4-(((2-hydroxyethyl)amino)methyl)phenoxy)methyl)-2,2′-dimethyl-[1,1′-biphenyl]-3-yl)benzo[d]oxazol-5-yl)methyl)pyrrolidine-3-carboxylic acid] | 10 to 100 nM
6 | Cc1c(Nc2nccc3cc(CN4CC[C@@H](O)C4)cnc23)cccc1-c1cccc(-c2nc3cc(CN4CC(C(=O)O)C4)cc(C#N)c3o2)c1C [Example 85, (R)-1-((7-cyano-2-(3′-(3-((3-hydroxypyrrolidin-1-yl)methyl)-1,7-naphthyridin-8-ylamino)-2,2′-dimethylbiphenyl-3-yl)benzo[d]oxazol-5-yl)methyl)azetidine-3-carboxylic acid] | ≤ 10 nM
7 | Cc1c(-c2nc3cc(CN4CC5(CC(C(=O)O)C5)C4)cc(C#N)c3o2)cccc1-c1cccc(-c2nc3c(s2)CN(C(=O)CN2CC[C@@H](O)C2)C3)c1C [Example 234, 2-((7-cyano-2-(3′-(5-(2-((R)-3-hydroxypyrrolidin-1-yl)acetyl)-5,6-dihydro-4H-pyrrolo[3,4-d]thiazol-2-yl)-2,2′-dimethylbiphenyl-3-yl)benzo[d]oxazol-5-yl)methyl)-2-azaspiro[3.3]heptane-6-carboxylic acid] | ≤ 10 nM
8 | Cc1c(-c2nc3cc(CN4CC[C@@H](C(=O)O)C4)cc(C#N)c3o2)cccc1-c1cccc(-c2nc3c(s2)CN(C(C)C)CC3)c1C [Example 63, (R)-1-((7-cyano-2-(3′-(5-isopropyl-4,5,6,7-tetrahydrothiazolo[5,4-c]pyridin-2-yl)-2,2′-dimethyl-[1,1′-biphenyl]-3-yl)benzo[d]oxazol-5-yl)methyl)pyrrolidine-3-carboxylic acid] | ≤ 10 nM
9 | Cc1c(-c2nc3cc(CN4CC[C@@](C)(C(=O)O)C4)cc(C#N)c3o2)cccc1-c1cccc(-c2nc3c(s2)CN(C(=O)CN[C@H]2C[C@@H](O)C2)C3)c1C [Example 228, (R)-1-((7-cyano-2-(3′-(5-(2-(cis-3-hydroxycyclobutylamino)acetyl)-5,6-dihydro-4H-pyrrolo[3,4-d]thiazol-2-yl)-2,2′-dimethylbiphenyl-3-yl)benzo[d]oxazol-5-yl)methyl)-3-methylpyrrolidine-3-carboxylic acid] | ≤ 10 nM
10 | Cc1c(Nc2nccc3cc(CN4CC[C@H](O)C4)cnc23)cccc1-c1cccc(-c2nc3cc(CN4CC[C@@H](C(=O)O)C4)cc(Cl)c3o2)c1C [Example 16, (R)-1-((7-chloro-2-(3′-(3-(((S)-3-hydroxypyrrolidin-1-yl)methyl)-1,7-naphthyridin-8-ylamino)-2,2′-dimethylbiphenyl-3-yl)benzo[d]oxazol-5-yl)methyl)pyrrolidine-3-carboxylic acid] | ≤ 10 nM
11 | Cc1c(Nc2nccc3cc(CN4CC[C@H](O)C4)cnc23)cccc1-c1cccc(-c2nc3cc(CNCCC(=O)O)cc(Cl)c3o2)c1C [Example 20, (S)-3-((7-chloro-2-(3′-(3-((3-hydroxypyrrolidin-1-yl)methyl)-1,7-naphthyridin-8-ylamino)-2,2′-dimethylbiphenyl-3-yl)benzo[d]oxazol-5-yl)methylamino)propanoic acid] | ≤ 10 nM
12 | Cc1c(-c2nc3cc(CN4CC[C@H](O)C4)cc(Cl)c3o2)cccc1-c1cccc(-c2nc3cc(CN4CC[C@H](C(=O)O)C4)cc(Cl)c3o2)c1C [Example 10, (S)-1-((7-chloro-2-(3′-(7-chloro-5-(((S)-3-hydroxypyrrolidin-1-yl)methyl)benzo[d]oxazol-2-yl)-2,2′-dimethylbiphenyl-3-yl)benzo[d]oxazol-5-yl)methyl)pyrrolidine-3-carboxylic acid] | ≤ 10 nM
13 | Cc1c(Nc2nccc3cc(CNCCO)cnc23)cccc1-c1cccc(-c2nc3cc(CNCCC(=O)O)cc(Cl)c3o2)c1C [Example 6, 3-(((7-chloro-2-(3′-((3-(((2-hydroxyethyl)amino)methyl)-1,7-naphthyridin-8-yl)amino)-2,2′-dimethyl-[1,1′-biphenyl]-3-yl)benzo[d]oxazol-5-yl)methyl)amino)propanoic acid] | ≤ 10 nM

Next, values leading:

Row | IC50 | Structure (SMILES)
14 | ≤ 10 nM | Cc1c(Nc2nccc3cc(CN[C@H](C)CO)cnc23)cccc1-c1cccc(-c2nc3cc(CN4CC[C@@](C)(C(=O)O)C4)cc(C#N)c3o2)c1C [Example 196, (R)-1-((7-cyano-2-(3′-(3-(((R)-1-hydroxypropan-2-ylamino)methyl)-1,7-naphthyridin-8-ylamino)-2,2′-dimethylbiphenyl-3-yl)benzo[d]oxazol-5-yl)methyl)-3-methylpyrrolidine-3-carboxylic acid]
15 | ≤ 10 nM | Cc1c(-c2nc3cc(CN4CCC(C(=O)O)CC4)cc(C#N)c3o2)cccc1-c1cccc(NC(=O)c2nc3c(n2C)CCN(C[C@@H](C)O)C3)c1Cl [Example 155, (R)-1-((2-(2′-chloro-3′-(5-(2-hydroxypropyl)-1-methyl-4,5,6,7-tetrahydro-1H-imidazo[4,5-c]pyridine-2-carboxamido)-2-methylbiphenyl-3-yl)-7-cyanobenzo[d]oxazol-5-yl)methyl)piperidine-4-carboxylic acid]
16 | ≤ 10 nM | Cc1c(Nc2nccc3cc(CN4CC[C@H](O)C4)cnc23)cccc1-c1cccc(-c2nc3cc(CN4CCC[C@H]4C(=O)O)cc(C#N)c3o2)c1C [Example 35, (S)-1-((7-cyano-2-(3′-(3-(((S)-3-hydroxypyrrolidin-1-yl)methyl)-1,7-naphthyridin-8-ylamino)-2,2′-dimethylbiphenyl-3-yl)benzo[d]oxazol-5-yl)methyl)pyrrolidine-2-carboxylic acid]
17 | ≤ 10 nM | Cc1c(Nc2nccc3cc(CN[C@H](C)CO)cnc23)cccc1-c1cccc(-c2nc3cc(CN4CCC(C(=O)O)CC4)cc(C#N)c3o2)c1C [Example 202, (R)-1-((7-cyano-2-(3′-(3-((1-hydroxypropan-2-ylamino)methyl)-1,7-naphthyridin-8-ylamino)-2,2′-dimethylbiphenyl-3-yl)benzo[d]oxazol-5-yl)methyl)piperidine-4-carboxylic acid]
18 | ≤ 10 nM | Cc1c(Nc2nccc3cc(CNC[C@@H](C)O)cnc23)cccc1-c1cccc(-c2nc3cc(CN4CC[C@@](C)(C(=O)O)C4)cc(C#N)c3o2)c1C [Example 192, (R)-1-((7-cyano-2-(3′-(3-(((R)-2-hydroxypropylamino)methyl)-1,7-naphtyridin-8-ylamino)-2,2′-dimethylbiphenyl-3-yl)benzo[d]oxazol-5-yl)methyl)-3-methylpyrrolidine-3-carboxylic acid]
19 | ≤ 10 nM | Cc1c(Nc2nccc3cc(CN[C@H](C)CO)cnc23)cccc1-c1cccc(-c2nc3cc(CN4CC[C@@H](C(=O)O)C4)cc(C#N)c3o2)c1C [Example 258, (R)-1-((7-cyano-2-(3′-(3-(((R)-1-hydroxypropan-2-ylamino)methyl)-1,7-naphthyridin-8-ylamino)-2,2′-dimethylbiphenyl-3-yl)benzo[d]oxazol-5-yl)methyl)pyrrolidine-3-carboxylic acid]
20 | ≤ 10 nM | CCN1CCc2c(nc(C(=O)Nc3cccc(-c4cccc(-c5nc6cc(CN7CC[C@H](C(=O)O)C7)cc(C#N)c6o5)c4C)c3C)n2C)C1 [Example 37, (S)-1-((7-cyano-2-(3′-(5-ethyl-1-methyl-4,5,6,7-tetrahydro-1H-imidazo[4,5-c]pyridine-2-carboxamido)-2,2′-dimethylbiphenyl-3-yl)benzo[d]oxazol-5-yl)methyl)pyrrolidine-3-carboxylic acid]
21 | ≤ 10 nM | Cc1c(-c2nc3c(o2)CCNC3)cccc1-c1cccc(-c2nc3cc(CN4CC[C@@H](C(=O)O)C4)cc(Cl)c3o2)c1C [Example 74, (R)-1-((7-chloro-2-(2,2′-dimethyl-3′-(4,5,6,7-tetrahydrooxazolo[4,5-c]pyridin-2-yl)-[1,1′-biphenyl]-3-yl)benzo[d]oxazol-5-yl)methyl)pyrrolidine-3-carboxylic acid]
